Measured values published in article PMC8286840, “Identifying SARS-CoV-2 antiviral compounds by screening for small molecule inhibitors of Nsp3 papain-like protease” (Biochemical Journal, 2021).
Where a name gives a salt, the structure may show the parent alone. Read-outs that look alike come from different tables or passages of the source.

Legend:
[1] = molecular target: T1, SARS-CoV-2 PLpro (nsp3 1564–1878) (Severe acute respiratory syndrome coronavirus 2, UniProt P0DTD1); assay: biochemical; set-up: FRET-quenched peptide (Pro3) cleavage by PLpro, 10 min pre-incubation, slope over 20 min, normalised to no-compound control; conditions: low concentration screen, read-out: % of control remaining
[2] = molecular target: T1, SARS-CoV-2 PLpro (nsp3 1564–1878); assay: biochemical; set-up: FRET-quenched peptide (Pro3) cleavage by PLpro, 10 min pre-incubation, slope over 20 min, normalised to no-compound control; conditions: high concentration screen, read-out: % of control remaining

CCN1CCc2nc(N)oc2CC1 [B-HT 933 dihydrochloride]
remaining activity at 1.25 µM ([1]; Well no.=87): 102% | remaining activity at 3.75 µM ([2]; Well no.=87): 105%

O=C(NCCCN1CCC2(CC1)OCc1ccccc12)[C@H]1CCCN1Cc1ccccc1 [BAN ORL 24]
remaining activity at 1.25 µM ([1]; Well no.=6946): 97.7% | remaining activity at 3.75 µM ([2]; Well no.=6946): 102%

Cc1ccc(S(=O)(=O)/C=C/C#N)cc1 [BAY 11-7082]
remaining activity at 1.25 µM ([1]; Well no.=79): 102% | remaining activity at 1.25 µM ([1]; Well no.=2360): 98.2% | remaining activity at 3.75 µM ([2]; Well no.=79): 99.5% | remaining activity at 3.75 µM ([2]; Well no.=2360): 99.1% | remaining activity at 3.75 µM ([2]; Well no.=6204): 104%

Nc1nc(-c2nn(Cc3ccccc3F)c3ncccc23)ncc1C1CC1 [BAY 41-2272]
remaining activity at 1.25 µM ([1]; Well no.=7717): 102% | remaining activity at 3.75 µM ([2]; Well no.=7717): 94.6%

CCn1c(=O)c2c(C)c(C(=O)N3CCC(O)CC3)sc2n(CCC(F)(F)F)c1=O [BAY-545]
remaining activity at 1.25 µM ([1]; Well no.=8597): 106% | remaining activity at 3.75 µM ([2]; Well no.=8597): 104%

CC(=O)C1=C(C)N(c2cccc(C(F)(F)F)c2)C(=O)N[C@@H]1c1ccc(C#N)nc1 [BAY-678]
remaining activity at 1.25 µM ([1]; Well no.=7734): 97.9% | remaining activity at 3.75 µM ([2]; Well no.=7734): 101%

Cc1c(NC(=O)c2cc(C(N)=O)nc3cc(F)ccc23)c(C(F)(F)F)nn1Cc1ccc(C#N)cc1 [BAY-876]
remaining activity at 1.25 µM ([1]; Well no.=8680): 101% | remaining activity at 3.75 µM ([2]; Well no.=8680): 98.3%

CN1CCN(CCc2ccc(Cl)c(Cl)c2)CC1 [BD1063 (dhydrochloride)]
remaining activity at 1.25 µM ([1]; Well no.=8057): 90.2% | remaining activity at 3.75 µM ([2]; Well no.=8057): 95.3%

CN(C)CCN(C)CCc1ccc(Cl)c(Cl)c1 [BD 1047 dihydrobromide]
remaining activity at 1.25 µM ([1]; Well no.=5470): 101% | remaining activity at 3.75 µM ([2]; Well no.=5470): 108%

CN(C)CCN(C)CCc1ccc(Cl)c(Cl)c1 [BD-1047 (dihydrobromide)]
remaining activity at 1.25 µM ([1]; Well no.=7287): 95.4% | remaining activity at 3.75 µM ([2]; Well no.=7287): 97.8%

N[C@@H](CSCCB(O)O)C(=O)O [BEC (hydrochloride)]
remaining activity at 1.25 µM ([1]; Well no.=8165): 105% | remaining activity at 3.75 µM ([2]; Well no.=8165): 103%

CCN1CCN(c2ccc(Nc3cc(N(C)C(=O)Nc4c(Cl)c(OC)cc(OC)c4Cl)ncn3)cc2)CC1 [BGJ398 (NVP-BGJ398)]
remaining activity at 1.25 µM ([1]; Well no.=5140): 97% | remaining activity at 3.75 µM ([2]; Well no.=5140): 99.3%

CC(C)C(C(=O)O)N1C(=O)/C(=C\c2ccc(Br)cc2)SC1=S (stereo not drawn) [BH3I-1]
remaining activity at 1.25 µM ([1]; Well no.=6586): 98.6% | remaining activity at 3.75 µM ([2]; Well no.=6586): 99.7%

O=c1[nH]nc(Sc2ncc([N+](=O)[O-])s2)n1-c1ccc2c(c1)OCCO2 [BI 78D3 - 4-(2,3-Dihydro-1,4-benzodioxin-6-yl)-2,4-dihydro-5-[(5-nitro-2-thiazolyl)thio]-3H-1,2,4-triazol-3-one]
remaining activity at 1.25 µM ([1]; Well no.=2684): 95.6% | remaining activity at 3.75 µM ([2]; Well no.=2684): 97.1%

O=c1[nH]nc(Sc2ncc([N+](=O)[O-])s2)n1-c1ccc2c(c1)OCCO2 [BI-78D3]
remaining activity at 1.25 µM ([1]; Well no.=6058): 101% | remaining activity at 3.75 µM ([2]; Well no.=6058): 96.9%

CC(C)CCN1c2nc(Nc3cc(F)c(O)c(F)c3)ncc2N(C)C(=O)C1C (stereo not drawn) [BI-D1870]
remaining activity at 1.25 µM ([1]; Well no.=2787): 101% | remaining activity at 3.75 µM ([2]; Well no.=2787): 104%

C/C(=C\C(=O)Nc1ccccc1C(=O)O)c1ccc2ccccc2c1 [BIBR 1532]
remaining activity at 1.25 µM ([1]; Well no.=5095): 103% | remaining activity at 3.75 µM ([2]; Well no.=5095): 106%

CN1CCC(Nc2ncc3ncnc(Nc4ccc(F)c(Cl)c4)c3n2)CC1 [BIBX 1382 dihydrochloride - N8-(3-Chloro-4-fluorophenyl)-N2-(1-methyl-4-piperidinyl)-pyrimido[5,4-d]pyrimidine-2,8-diamine dihydrochloride]
remaining activity at 1.25 µM ([1]; Well no.=2528): 96.6% | remaining activity at 3.75 µM ([2]; Well no.=2528): 91%

COc1c(C)cnc(Cn2cnc3c(Cl)nc(N)nc32)c1C [BIIB021]
remaining activity at 1.25 µM ([1]; Well no.=5091): 104% | remaining activity at 3.75 µM ([2]; Well no.=5091): 107%

CC(=O)O/N=C1/C(c2c(O)[nH]c3cc(Br)ccc23)=Nc2ccccc21 [BIO-Acetoxime]
remaining activity at 1.25 µM ([1]; Well no.=5822): 96% | remaining activity at 3.75 µM ([2]; Well no.=5822): 93.6%

Cc1ccc(-n2nc(C(C)(C)C)cc2NC(=O)Nc2ccc(OCCN3CCOCC3)c3ccccc23)cc1 [BIRB 796 (Doramapimod)]
remaining activity at 1.25 µM ([1]; Well no.=5264): 89.3% | remaining activity at 3.75 µM ([2]; Well no.=5264): 89.7%

COc1cc2nc(N3CCCN(C)CC3)nc(NC3CCN(Cc4ccccc4)CC3)c2cc1OC [BIX01294]
remaining activity at 1.25 µM ([1]; Well no.=5180): 102% | remaining activity at 3.75 µM ([2]; Well no.=5180): 99.6%

CN(C)Cc1cccc(N/C(=C2\C(=O)Nc3cc(C(N)=O)ccc32)c2ccccc2)c1 [BIX 02188]
remaining activity at 1.25 µM ([1]; Well no.=5283): 96.6% | remaining activity at 3.75 µM ([2]; Well no.=5283): 93.8%

COc1ccc2c(c1)c(CC(=O)N1CCOCC1)c(C)n2C(=O)c1ccc(Cl)cc1 [BML-190]
remaining activity at 1.25 µM ([1]; Well no.=4328): 97.5% | remaining activity at 1.25 µM ([1]; Well no.=8379): 96.7% | remaining activity at 3.75 µM ([2]; Well no.=4328): 92.3% | remaining activity at 3.75 µM ([2]; Well no.=8379): 97.9%

Nc1ccccc1NC(=O)CCCCCCC(=O)Nc1ccccc1 [BML-210]
remaining activity at 1.25 µM ([1]; Well no.=5799): 105% | remaining activity at 3.75 µM ([2]; Well no.=5799): 104%

CCOc1ccn(-c2ccc(F)cc2)c(=O)c1C(=O)Nc1ccc(Oc2ccnc(N)c2Cl)c(F)c1 [BMS 777607]
remaining activity at 1.25 µM ([1]; Well no.=5297): 94.1% | remaining activity at 3.75 µM ([2]; Well no.=5297): 90.4%

Nc1nccc(Oc2ccc(NC(=O)c3c[nH]cc(-c4ccc(F)cc4)c3=O)cc2F)c1Cl [BMS 794833]
remaining activity at 1.25 µM ([1]; Well no.=5150): 100% | remaining activity at 3.75 µM ([2]; Well no.=5150): 96.4%

COc1cc(OCc2cccc(-c3ccccc3)c2C)cc(OC)c1CN1CCCC[C@H]1C(=O)O [BMS-1]
remaining activity at 1.25 µM ([1]; Well no.=7780): 98.8% | remaining activity at 1.25 µM ([1]; Well no.=8163): 105% | remaining activity at 3.75 µM ([2]; Well no.=7780): 96.2% | remaining activity at 3.75 µM ([2]; Well no.=8163): 100%

O=C(Nc1ncc(-c2cc(C(F)F)nn2-c2c(Cl)cccc2Cl)s1)C1CC1 [BMS-3]
remaining activity at 1.25 µM ([1]; Well no.=3039): 95.8% | remaining activity at 3.75 µM ([2]; Well no.=3039): 96.4%

CC(C)C(=O)Nc1ncc(-c2cc(C(F)F)nn2-c2c(Cl)cccc2Cl)s1 [BMS-5]
remaining activity at 1.25 µM ([1]; Well no.=2705): 100% | remaining activity at 3.75 µM ([2]; Well no.=2705): 96.9%

COc1nc(OCc2cccc(-c3ccccc3)c2C)ccc1CNCCNC(C)=O [BMS-202]
remaining activity at 1.25 µM ([1]; Well no.=8469): 100% | remaining activity at 1.25 µM ([1]; Well no.=8694): 96.5% | remaining activity at 3.75 µM ([2]; Well no.=8469): 95.5% | remaining activity at 3.75 µM ([2]; Well no.=8694): 93.7%

Cc1c(COc2cc(OCc3cccc(C#N)c3)c(CN3C[C@H](O)C[C@@H]3C(=O)O)cc2Cl)cccc1-c1ccc2c(c1)OCCO2 [BMS-1166]
remaining activity at 1.25 µM ([1]; Well no.=8310): 96.7% | remaining activity at 3.75 µM ([2]; Well no.=8310): 96.4%

CC1(C)CC=C(c2cnc3ccccc3c2)c2cc(C(=O)Nc3ccc(C(=O)O)cc3)ccc21 [BMS-195614]
remaining activity at 1.25 µM ([1]; Well no.=5458): 98.2% | remaining activity at 3.75 µM ([2]; Well no.=5458): 103%
